Measurements from US20050032165A1, “Potassium channels, nucleotide sequences encoding them, and methods of using same” (BASF AKTIENGESELLSCHAFT, priority 1994, published 2005).
Values belong to the compound of their own block, whether it stands above or below them.

Experiments:
TPKC1 [1] = target: T1, TPKC1 (Homo sapiens, UniProt O95069, D309R/L311V/L365I/T411A/W310L); assay: TPCK1-induced currents in X. laevis oocytes, two-electrode voltage clamp; type: cell-based; design: The TPKC1 ORF was amplified by PCR with 5′ primer; expressed in transfected cells; host or cells: Xenopus laevis oocytes injected with cRNA transcribed from pLP163; settings: for block of TPKC1 current: relative to Ba2+ (50% at 1 mM), data not shown
T1 sequence (O95069 1-426 D309R/W310L/L311V/L365I/T411A): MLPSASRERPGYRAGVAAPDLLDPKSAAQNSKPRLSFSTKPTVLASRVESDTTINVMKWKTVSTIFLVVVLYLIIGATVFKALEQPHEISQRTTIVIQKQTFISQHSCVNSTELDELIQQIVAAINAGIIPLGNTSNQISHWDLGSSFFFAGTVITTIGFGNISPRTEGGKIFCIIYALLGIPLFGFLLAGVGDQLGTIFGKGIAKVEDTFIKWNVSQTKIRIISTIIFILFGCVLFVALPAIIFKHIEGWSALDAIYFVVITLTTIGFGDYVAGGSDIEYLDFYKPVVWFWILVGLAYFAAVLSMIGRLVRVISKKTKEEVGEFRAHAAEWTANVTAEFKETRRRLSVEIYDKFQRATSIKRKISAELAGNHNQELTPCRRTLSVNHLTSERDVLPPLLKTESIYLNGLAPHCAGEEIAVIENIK
Text: The expression vector pLP160 was generated by inserting a poly (A)n tract (n=30) followed by a BglII site between the Not1 and XbaI sites of pBluescript SK (+/−) (Stratagene). The final vector contains a deletion from the poly(A) tract through the BamH1 site. The TPKC1 ORF was amplified by PCR with 5′ primer (5′-AAAAAGCTTGCCACCATGCTTCCCAGCGCC-3′) and 3′ primer (5′-CTA TTT GAT GTT CTC-3′), digested with the HindIII and inserted into the vector pLP160 digested with HindIII and SmaI to give pLP163. This construct was linearized with BglII for in vitro cRNA transcription with T7 RNA polymerase (Ambion). The cRNA was quantified by gel electrophoresis using RNA standards (Gibco BRL). One ng of TPKC1 cRNA (23 nl of 40 ng/μl solution) was microinjected into defolliculated oocytes from Xenopus laevis. Oocytes were incubated at 17° C. with gentle shaking in ND96 medium. Whole cell electrophysiological recordings were taken 1-3 days post-injection at room temperature in a constantly-perfusing bath using a two-electrode voltage clamp protocol of 300 ms pulses from −150 to +60 mV from a holding potential of −90 mV. The interval between pulses was one second. Electrodes (3 MΩ current injection, 30 MΩ voltage recording) contained 4 M potassium acetate.

KAT1 = target: T2, KAT1 (Arabidopsis thaliana, UniProt Q39128); assay: Yeast agar plate bioassay, KAT-dependent growth of CY162; type: cell-based, plant; settings: CY162 yeast bearing pKAT1; filter disk with 20 μl of 1 M solution; arginine phosphate agar, 0.2 mM KCl
T2 construct: expressed in transfected cells; host or cells: Saccharomyces cerevisiae CY162 carrying pKAT1
T2 sequence (Q39128 whole entry): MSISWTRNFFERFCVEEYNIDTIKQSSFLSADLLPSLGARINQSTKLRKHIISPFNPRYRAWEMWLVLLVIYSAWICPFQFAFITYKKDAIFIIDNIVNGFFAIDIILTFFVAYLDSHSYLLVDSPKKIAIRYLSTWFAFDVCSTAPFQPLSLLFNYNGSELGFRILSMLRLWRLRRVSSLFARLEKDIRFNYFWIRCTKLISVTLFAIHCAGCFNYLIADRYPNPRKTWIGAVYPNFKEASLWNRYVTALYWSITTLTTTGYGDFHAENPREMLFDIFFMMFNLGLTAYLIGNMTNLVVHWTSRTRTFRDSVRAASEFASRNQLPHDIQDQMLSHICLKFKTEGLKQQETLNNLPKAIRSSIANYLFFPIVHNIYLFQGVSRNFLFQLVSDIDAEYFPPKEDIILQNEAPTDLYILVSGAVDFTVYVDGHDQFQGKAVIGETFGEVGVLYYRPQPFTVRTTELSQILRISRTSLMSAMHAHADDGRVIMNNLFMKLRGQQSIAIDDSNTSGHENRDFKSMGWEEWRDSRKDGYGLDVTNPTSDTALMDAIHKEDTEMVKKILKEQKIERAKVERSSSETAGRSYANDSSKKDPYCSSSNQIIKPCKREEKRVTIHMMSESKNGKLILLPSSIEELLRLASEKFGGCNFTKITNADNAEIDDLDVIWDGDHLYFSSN
Method: (§1) FIG. 8. Inhibition of growth of yeast cells containing heterologous potassium channels. CY162 cells (10^5) bearing the indicated plasmids are plated in arginine phosphate agar medium containing 0.2 mM potassium chloride. Sterile filter disks were placed on the surface of the agar and saturated with 20 μl of a 1 M solution of potassium channel blocking compound. Clockwise from upper left-hand comer is BaCl2, CsCl, TEA, and RbCl. KCl is applied to the center disk.
(§2) Yeast strains dependent on heterologous potassium channels for growth should be sensitive to non-specific potassium channel blocking compounds. To test the potassium channel blocking properties of several compounds, a convenient agar plate bioassay is employed. Strains containing pKAT1, pRATRAK, pDmORF1, and pYES2 are plated in arginine-phosphate-dextrose agar medium lacking ura and containing various amounts of potassium chloride. Arginine-phosphate-dextrose medium is used to avoid interference from potassium and ammonium ions present in standard synthetic yeast culture medium. Sterile filter disks were placed on the surface of the agar and saturated with potassium channel blocking ions CsCl, BaCl2, and TEA. The growth of heterologous potassium channel containing strains is inhibited by potassium channel blocking ions, in a channel dependent manner. DmORF1-dependent growth is blocked by BaCl2 but not by CsCl or TEA. KAT-dependent growth is blocked by BaCl2, CsCl and TEA. RATRAK-dependent growth is blocked by BaCl2, CsCl and TEA to a much greater extent than pKAT1, reflecting in part a slower growth rate of pRATRAK-containing cells.

RATRAK = target: T3, RATRAK (Rattus norvegicus, UniProt P63142); assay: Yeast agar plate bioassay, RATRAK-dependent growth of CY162; type: cell-based; settings: CY162 yeast bearing pRATRAK; filter disk with 20 μl of 1 M solution; blocked to a much greater extent than pKAT1
T3 construct: expressed in transfected cells; host or cells: Saccharomyces cerevisiae CY162 carrying pRATRAK
T3 sequence (P63142 whole entry): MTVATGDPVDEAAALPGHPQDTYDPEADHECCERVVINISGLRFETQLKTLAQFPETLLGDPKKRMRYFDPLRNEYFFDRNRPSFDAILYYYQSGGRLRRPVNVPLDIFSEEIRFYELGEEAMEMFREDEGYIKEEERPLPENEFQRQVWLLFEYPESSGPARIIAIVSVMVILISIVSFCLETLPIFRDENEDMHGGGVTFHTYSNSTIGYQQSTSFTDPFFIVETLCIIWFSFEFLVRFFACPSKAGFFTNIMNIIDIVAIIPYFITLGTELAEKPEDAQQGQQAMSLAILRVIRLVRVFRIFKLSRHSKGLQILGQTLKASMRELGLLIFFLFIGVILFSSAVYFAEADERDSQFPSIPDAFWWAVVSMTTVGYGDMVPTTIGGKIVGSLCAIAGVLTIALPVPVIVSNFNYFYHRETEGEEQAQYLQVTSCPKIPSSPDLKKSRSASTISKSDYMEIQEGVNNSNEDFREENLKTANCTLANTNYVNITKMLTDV
Method: as §1, §2

TPKC1 [2] = target: T1, TPKC1; assay: Growth of TPKC1-containing CY162 cells on low potassium media; type: cell-based; design: The TPKC1 ORF was amplified by PCR with 5′ primer; expressed in transfected cells; settings: low (2-3 mM KCl) potassium media
Text: The TPKC1 ORF was amplified using oligos that added restriction endonuclease cleavage sites appropriate for insertion into the yeast expression vectors pLP100 and pYES2 (Invitrogen). The corresponding TPKC1 expression plasmids, pLP155 and pLP156, were constructed using standard molecular biological methodology and used to transform S. cerevisiae CY162 cells using the lithium acetate method. The resulting yeast strains were examined for their ability to grow on standard synthetic agar media containing a low concentration of KCl. Expression of TPKC1 in CY162 cells supports their growth on low (2-3 mM KCl) potassium media. […] The growth of TPKC1-containing CY162 cells was inhibited by the known potassium channel blockers Ba^2+, Ca^2+, Cs^+, and quinine, but not by TEA. The oligos used for the cloning of 5′ and 3′ RACE fragments were used in this analysis as well.
LY890 (MAT trk1:: LYS2 trk2::TRP1 ura3-52 lys2-801, ade2-101, trp1-Δ63, his3-Δ200, leu2-Δ1) was constructed by deletion of the TRK1 and TRK2 genes from the parent yeast strain YPH500 (Stratagene). The full length TPKC1 ORF fragment was generated by PCR; 5′ primer (5′-AAAAGATCTAAAATGCTTCCCAGCGCC-3′), 3′ primer (AAAGTCGACCTATTTGATGTTCTCAAT-3′) and inserted into the yeast expression vector pLP100 [18] to yield pLP155. pLP155 was used to transform S. cerevisiae LY890 cells using standard methods. CY162 was constructed as described in J. A. Anderson et al., Proc. Natl. Acad. Sci. USA 89, 3736-3740 (1992). Yeast cells (10^5) containing the indicated plasmids were plated in RPD (arginine phosphate glucose) low potassium (2 mM) agar media and compounds applied to the surface of the agar.

DmORF1 [3] = target: T4, DmORF1 (Drosophila melanogaster, UniProt Q94526); assay: DmORF1-induced currents in X. laevis oocytes, two-electrode voltage clamp; type: cell-based; design: A single long open reading frame sufficient to encode a protein of 618 amino acids (predicted MW 68 kDa) is encoded in pDmORF1; expressed in transfected cells; settings: two-electrode whole-cell voltage clamp
T4 sequence (Q94526 other isoform, or with tags, fused parts or gaps with the stated changes): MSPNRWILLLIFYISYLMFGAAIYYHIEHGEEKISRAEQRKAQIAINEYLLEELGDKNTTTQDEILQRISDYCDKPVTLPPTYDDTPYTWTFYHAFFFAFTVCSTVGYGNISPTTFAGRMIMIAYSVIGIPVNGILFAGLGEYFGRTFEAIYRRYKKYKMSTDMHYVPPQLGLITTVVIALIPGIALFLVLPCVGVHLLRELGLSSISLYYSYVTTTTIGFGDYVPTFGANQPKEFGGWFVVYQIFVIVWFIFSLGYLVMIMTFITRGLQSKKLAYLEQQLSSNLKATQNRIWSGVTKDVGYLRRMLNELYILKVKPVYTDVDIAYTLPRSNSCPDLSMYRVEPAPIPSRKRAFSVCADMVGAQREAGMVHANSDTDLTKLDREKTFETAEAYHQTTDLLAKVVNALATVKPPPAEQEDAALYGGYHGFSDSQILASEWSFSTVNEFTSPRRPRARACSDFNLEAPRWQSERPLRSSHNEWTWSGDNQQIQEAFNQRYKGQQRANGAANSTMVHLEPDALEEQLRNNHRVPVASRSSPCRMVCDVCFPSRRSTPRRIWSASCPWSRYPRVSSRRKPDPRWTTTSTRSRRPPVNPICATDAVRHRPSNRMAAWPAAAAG
Method: To test this hypothesis, the electrophysiological properties of the putative potassium channel encoded by DmORF1 was examined by expression in X. laevis oocytes. Currents were measured by two-electrode whole-cell voltage clamp. DNA sequences encoding the open reading frame of DmORF1 were amplified by polymerase chain reaction (PCR) using the following oligonucleotides:
The full length PCR product was cloned into corresponding sites in pSP64 poly A (Promega), forming pMP147. Template DNA was linearized with EcoRI and RNA transcribed using the Message Machine (Ambion) in vitro transcription kit according to manufacturers instructions. A sample of the RNA was resolved in a MOPS-acetate-formaldehyde agarose gel and RNA content was estimated by ethidium bromide staining. The remainder was stored on dry ice. X. laevis oocytes were isolated and injected with 50 nl of sterile TE containing 5-20 ng transcript according to published procedures. After three days, whole oocyte currents were recorded using a two-electrode voltage clamp. Electrodes contained 3M KCl and had resistances of 0.3-1.0 MW. Recordings were performed faith constant perfusion at room temperature in the presence of either low (10 mM) or high (90 mM) potassium chloride.

DmORF1 [4] = target: T4, DmORF1; assay: Yeast agar plate bioassay, DmORF1-dependent growth of CY162; type: cell-based; design: A single long open reading frame sufficient to encode a protein of 618 amino acids (predicted MW 68 kDa) is encoded in pDmORF1; expressed in transfected cells; host or cells: Saccharomyces cerevisiae CY162 (trk1 trk2) carrying pDmORF1 (pYES2 library plasmid); settings: CY162 yeast bearing pDmORF1; filter disk with 20 μl of 1 M solution; arginine phosphate agar, 0.2 mM KCl
Method: as §1, §2

DmORF1 [5] = target: T4, DmORF1; assay: 86Rb uptake into CY162 cells containing DmORF1; type: cell-based; design: A single long open reading frame sufficient to encode a protein of 618 amino acids (predicted MW 68 kDa) is encoded in pDmORF1; expressed in transfected cells; host or cells: Saccharomyces cerevisiae CY162 (trk1 trk2) carrying pDmORF1 (pYES2 library plasmid); settings: CY162-DmORF1 yeast cells, Ca-MES buffer, room temperature
Method: Expression of DmORF permits CY162 cells to grow on medium containing a low concentration of potassium, implying that DmORF1 supplies high affinity potassium uptake capacity. To characterize the potassium uptake properties of CY162 cells containing DmORF1, ^86Rb uptake studies were performed.
Yeast strains containing heterologous potassium-expression plasmids CY162-DmORF1, CY162-pKAT and the control strain CY162-pYES2 (Clontech) were cultured overnight in SC Gal-ura containing 0.1 M KCl. The cells were harvested, washed with sterile doubled distilled water and starved for K^+ for 6 hours in Ca-MES buffer. Cells were washed again and distributed to culture tubes (10^8 cells/tube) containing ^86RbCl in Ca-MES buffer.

CY162 cells = assay: Yeast agar plate bioassay, control pYES2-containing CY162 strain; type: cell-based, Saccharomyces cerevisiae; settings: CY162 bearing pYES2; low potassium agar; compound on filter disk
Method: as §1
as §2, with “KAT-dependent growth is blocked by BaCl2, CsCl and TEA. RATRAK-dependent growth is blocked by BaCl2, CsCl and TEA to a much greater extent than pKAT1, reflecting in part a slower growth rate of pRATRAK-containing cells.” left out

Compound: Nc1ccncc1 [4-AP]
block of TPKC1 current (TPKC1 [1]): block to a lesser degree

Compound: [Ba+2].[Cl-].[Cl-] [BaCl2]
block of KAT-dependent growth (KAT1): blocked
block of RATRAK-dependent growth (RATRAK): blocked
inhibition of growth of TPKC1-containing CY162 cells (TPKC1 [2]): inhibited
attenuation of DmORF1 potassium currents (DmORF1 [3]): greatly attenuated
inhibition of TPKC1 current (TPKC1 [1]; applied at 1 mM, FIG. 11D): 50%
block of DmORF1-dependent growth (DmORF1 [4]): blocked
inhibition of 86Rb uptake (DmORF1 [5]): inhibited

inhibition of growth of TPKC1-containing CY162 cells (TPKC1 [2]): inhibited
block of TPKC1 current (TPKC1 [1]): block to a lesser degree
Compound: [Ca+2] [Ca^2+]

Compound: [Cl-].[Cs+] [CsCl]
block of KAT-dependent growth (KAT1): blocked
block of RATRAK-dependent growth (RATRAK): blocked
inhibition of growth of TPKC1-containing CY162 cells (TPKC1 [2]): inhibited
block of TPKC1 current (TPKC1 [1]): failed to block
block of DmORF1-dependent growth (DmORF1 [4]): not

Compound: [Cl-].[K+] [KCl]
growth of control pYES-containing strain around applied compound (CY162 cells): grows only around applied

Compound: [Cl-].[Rb+] [RbCl]
growth of control pYES-containing strain around applied compound (CY162 cells): grows only around applied

Compound: CC[N+](CC)(CC)CC [TEA]
block of KAT-dependent growth (KAT1): blocked
block of RATRAK-dependent growth (RATRAK): blocked
inhibition of growth of TPKC1-containing CY162 cells (TPKC1 [2]): not
block of TPKC1 current (TPKC1 [1]): failed to block
block of DmORF1-dependent growth (DmORF1 [4]): not

inhibition of growth of TPKC1-containing CY162 cells (TPKC1 [2]): inhibited
block of TPKC1 current (TPKC1 [1]): block to a lesser degree
Compound: C=C[C@H]1C[N@@]2CC[C@H]1C[C@H]2[C@H](O)c1ccnc2ccc(OC)cc12 [quinine]
